The NIST ThermoML archive (doi:10.1021/acs.jced.6b00750)

Assay: xn = mol fraction of the nth substance listed
Settings: Liquid; for mass density: Vibrating wire densiometer; for viscosity: Vibrating wire viscometry

CCCCCCCCCCCCCCCC [hexadecane] + O=C=O
Settings | mass density [kg/m3] | viscosity [mPa·s]
373.08 K, 80110 kPa, x2 = 0.727 | 813.1 | 0.581
373.08 K, 80560 kPa, x2 = 0.069 | 773.5 | 1.794
373.08 K, 99990 kPa, x2 = 0.727 | 828.7 | 0.659
373.08 K, 100830 kPa, x2 = 0.069 | 783.5 | 2.087
373.08 K, 117640 kPa, x2 = 0.727 | 840.7 | 0.735
373.11 K, 20760 kPa, x2 = 0.5877 | 745.5 | 0.463
373.11 K, 20790 kPa, x2 = 0.5877 | 745.5 | 0.463
373.11 K, 40220 kPa, x2 = 0.5877 | 768.7 | 0.564
373.11 K, 60460 kPa, x2 = 0.5877 | 787.7 | 0.67
373.11 K, 80240 kPa, x2 = 0.5877 | 803.1 | 0.775
423.11 K, 11500 kPa, x2 = 0.069 | 694.2 | 0.574
423.11 K, 11890 kPa, x2 = 0.069 | 694.7 | 0.576
423.11 K, 21700 kPa, x2 = 0.069 | 705.2 | 0.645
423.11 K, 25910 kPa, x2 = 0.5877 | 708.9 | 0.328
423.11 K, 25970 kPa, x2 = 0.5877 | 709.4 | 0.33
423.11 K, 40190 kPa, x2 = 0.5877 | 730.3 | 0.384
423.11 K, 40710 kPa, x2 = 0.069 | 722.5 | 0.778
423.11 K, 42080 kPa, x2 = 0.727 | 730.1 | 0.296
423.11 K, 42200 kPa, x2 = 0.727 | 730.3 | 0.296
423.11 K, 60240 kPa, x2 = 0.5877 | 753.3 | 0.462
423.11 K, 60280 kPa, x2 = 0.727 | 755.6 | 0.353
423.11 K, 60590 kPa, x2 = 0.069 | 737.2 | 0.929
423.11 K, 80390 kPa, x2 = 0.727 | 777.7 | 0.412
423.11 K, 80460 kPa, x2 = 0.5877 | 772 | 0.537
423.11 K, 80740 kPa, x2 = 0.069 | 750 | 1.083
423.11 K, 100360 kPa, x2 = 0.727 | 795.9 | 0.471
423.11 K, 100800 kPa, x2 = 0.5877 | 787.9 | 0.614
423.11 K, 101550 kPa, x2 = 0.069 | 761.6 | 1.253
423.11 K, 118170 kPa, x2 = 0.5877 | 799.8 | 0.683
423.11 K, 120210 kPa, x2 = 0.727 | 811.4 | 0.529
473.15 K, 43620 kPa, x2 = 0.5877 | 697.7 | 0.293
473.15 K, 43720 kPa, x2 = 0.5877 | 697.7 | 0.292
473.15 K, 60700 kPa, x2 = 0.5877 | 720.7 | 0.343
473.15 K, 80450 kPa, x2 = 0.5877 | 742 | 0.402
473.15 K, 100840 kPa, x2 = 0.5877 | 760.2 | 0.46
473.15 K, 120610 kPa, x2 = 0.5877 | 775.2 | 0.52
473.26 K, 61090 kPa, x2 = 0.727 | 718.9 | 0.267
473.26 K, 61330 kPa, x2 = 0.727 | 719.1 | 0.268
473.26 K, 80480 kPa, x2 = 0.727 | 744 | 0.313
473.26 K, 100590 kPa, x2 = 0.727 | 765.1 | 0.36
473.26 K, 120860 kPa, x2 = 0.727 | 783 | 0.407
